Measured values taken from PubChem BioAssay (NCI).
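Compound exposure: 48 hours, 5 concentrations, 96-well plates. Definition used: TGI = concentration required for complete inhibition of growth.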

Columns and labels:
Assay in all cases: NCI-60 cell line screen, 48 h
SK-MEL-28 melanoma = test system: SK-MEL-28 melanoma
UACC-257 melanoma = test system: UACC-257 melanoma
OVCAR-8 ovarian = test system: OVCAR-8 ovarian
OVCAR-3 ovarian = test system: OVCAR-3 ovarian
NCI-H226 lung = test system: NCI-H226 lung
T-47D breast = test system: T-47D breast
NCI-H23 lung = test system: NCI-H23 lung
EKVX NSCLC = test system: EKVX NSCLC
HOP-62 NSCLC = test system: HOP-62 NSCLC
HOP-92 NSCLC = test system: HOP-92 NSCLC
SF-268 CNS = test system: SF-268 CNS
786-0 renal = test system: 786-0 renal
LOX IMVI melanoma = test system: LOX IMVI melanoma
HCT-15 colon = test system: HCT-15 colon
A498 renal = test system: A498 renal
SNB-19 CNS = test system: SNB-19 CNS
KM12 colon = test system: KM12 colon
COLO 205 colon = test system: COLO 205 colon
HCC-2998 colon = test system: HCC-2998 colon
OVCAR-5 ovarian = test system: OVCAR-5 ovarian
OVCAR-4 ovarian = test system: OVCAR-4 ovarian
CCRF-CEM leukemia = test system: CCRF-CEM leukemia
SF-295 CNS = test system: SF-295 CNS
NCI-H522 lung = test system: NCI-H522 lung
SK-OV-3 ovarian = test system: SK-OV-3 ovarian
A549 NSCLC = test system: A549 NSCLC
SR leukemia = test system: SR leukemia
MALME-3M melanoma = test system: MALME-3M melanoma
K-562 leukemia = test system: K-562 leukemia
RPMI-8226 leukemia = test system: RPMI-8226 leukemia
M14 melanoma = test system: M14 melanoma
TK-10 renal = test system: TK-10 renal
RXF 393 renal = test system: RXF 393 renal
BT-549 breast = test system: BT-549 breast
UO-31 renal = test system: UO-31 renal
IGROV1 ovarian = test system: IGROV1 ovarian
NCI-H460 lung = test system: NCI-H460 lung
SNB-75 CNS = test system: SNB-75 CNS
CAKI-1 renal = test system: CAKI-1 renal
MCF7 breast = test system: MCF7 breast
HL-60(TB) leukemia = test system: HL-60(TB) leukemia
ACHN renal = test system: ACHN renal
HS 578T breast = test system: HS 578T breast
DU-145 prostate = test system: DU-145 prostate
SW-620 colon = test system: SW-620 colon
SF-539 CNS = test system: SF-539 CNS
MDA-N = test system: MDA-N
MOLT-4 leukemia = test system: MOLT-4 leukemia
UACC-62 melanoma = test system: UACC-62 melanoma
HT29 colon = test system: HT29 colon
PC-3 prostate = test system: PC-3 prostate
SN12C renal = test system: SN12C renal
NCI/ADR-RES ovarian = test system: NCI/ADR-RES ovarian
HCT-116 colon = test system: HCT-116 colon
SK-MEL-2 melanoma = test system: SK-MEL-2 melanoma
MDA-MB-231 breast = test system: MDA-MB-231 breast
SK-MEL-5 melanoma = test system: SK-MEL-5 melanoma
MDA-MB-435 = test system: MDA-MB-435
U251 CNS = test system: U251 CNS

Cc1ccc([N+](=O)[O-])cc1S(=O)(=O)Nc1ccc(C2=NOC(c3cccs3)C2)cc1 (stereo not drawn)
TGI (SK-MEL-28 melanoma): > 100 µM | TGI (UACC-257 melanoma): 49.6 µM | TGI (OVCAR-8 ovarian): 69.9 µM | TGI (OVCAR-3 ovarian): 19.7 µM | TGI (NCI-H226 lung): > 100 µM | TGI (T-47D breast): 50.5 µM | TGI (NCI-H23 lung): 73.4 µM | TGI (EKVX NSCLC): 65 µM | TGI (HOP-62 NSCLC): 29.1 µM | TGI (HOP-92 NSCLC): 57 µM | TGI (SF-268 CNS): 99.2 µM | TGI (786-0 renal): 37.7 µM | TGI (LOX IMVI melanoma): 23.6 µM | TGI (HCT-15 colon): 28.5 µM | TGI (A498 renal): 36.7 µM | TGI (SNB-19 CNS): 53.1 µM | TGI (KM12 colon): 29.1 µM | TGI (COLO 205 colon): > 100 µM | TGI (HCC-2998 colon): 21.9 µM | TGI (OVCAR-5 ovarian): > 100 µM | TGI (OVCAR-4 ovarian): 32.3 µM | TGI (CCRF-CEM leukemia): 50.2 µM | TGI (SF-295 CNS): 44.1 µM | TGI (NCI-H522 lung): 21.2 µM | TGI (SK-OV-3 ovarian): 52.2 µM | TGI (A549 NSCLC): 67.2 µM | TGI (SR leukemia): 11.5 µM | TGI (MALME-3M melanoma): > 100 µM | TGI (K-562 leukemia): 43.6 µM | TGI (RPMI-8226 leukemia): 94.5 µM | TGI (M14 melanoma): 20.8 µM | TGI (TK-10 renal): 50.3 µM | TGI (RXF 393 renal): 22.4 µM | TGI (BT-549 breast): 41 µM | TGI (UO-31 renal): 21.9 µM | TGI (IGROV1 ovarian): 30 µM | TGI (NCI-H460 lung): 28.8 µM | TGI (SNB-75 CNS): 61.8 µM | TGI (CAKI-1 renal): 70.4 µM | TGI (MCF7 breast): 23.4 µM | TGI (HL-60(TB) leukemia): 25.7 µM | TGI (ACHN renal): 46.3 µM | TGI (HS 578T breast): 83 µM | TGI (DU-145 prostate): 52.7 µM | TGI (SW-620 colon): 48.4 µM | TGI (SF-539 CNS): 56.5 µM | TGI (MDA-N): 10.4 µM | TGI (MOLT-4 leukemia): 22.3 µM | TGI (UACC-62 melanoma): 17.8 µM | TGI (HT29 colon): 40.2 µM | TGI (PC-3 prostate): > 100 µM | TGI (SN12C renal): 53.3 µM | TGI (NCI/ADR-RES ovarian): 41.1 µM | TGI (HCT-116 colon): 28.1 µM | TGI (SK-MEL-2 melanoma): 28.3 µM | TGI (MDA-MB-231 breast): > 100 µM | TGI (SK-MEL-5 melanoma): 22.5 µM | TGI (MDA-MB-435): 10.4 µM

CCC1CCN=C(NS(=O)(=O)c2cc(C)c(Cl)cc2S)N1 (stereo not drawn)
TGI (SK-MEL-28 melanoma): > 100 µM | TGI (UACC-257 melanoma): > 100 µM | TGI (OVCAR-8 ovarian): 44.6 µM | TGI (NCI-H226 lung): 73.6 µM | TGI (T-47D breast): 98.5 µM | TGI (EKVX NSCLC): > 100 µM | TGI (HOP-62 NSCLC): > 100 µM | TGI (HOP-92 NSCLC): > 100 µM | TGI (SF-268 CNS): > 100 µM | TGI (786-0 renal): 97.9 µM | TGI (LOX IMVI melanoma): 53.2 µM | TGI (HCT-15 colon): > 100 µM | TGI (A498 renal): > 100 µM | TGI (SNB-19 CNS): > 100 µM | TGI (COLO 205 colon): > 100 µM | TGI (HCC-2998 colon): > 100 µM | TGI (OVCAR-5 ovarian): 49.9 µM | TGI (OVCAR-4 ovarian): > 100 µM | TGI (CCRF-CEM leukemia): 88.1 µM | TGI (NCI-H522 lung): 76.9 µM | TGI (SK-OV-3 ovarian): > 100 µM | TGI (A549 NSCLC): > 100 µM | TGI (SR leukemia): > 100 µM | TGI (MALME-3M melanoma): 92.9 µM | TGI (K-562 leukemia): > 100 µM | TGI (RPMI-8226 leukemia): 81.5 µM | TGI (M14 melanoma): > 100 µM | TGI (TK-10 renal): > 100 µM | TGI (RXF 393 renal): > 100 µM | TGI (BT-549 breast): 57.2 µM | TGI (UO-31 renal): 82.4 µM | TGI (IGROV1 ovarian): > 100 µM | TGI (NCI-H460 lung): > 100 µM | TGI (SNB-75 CNS): > 100 µM | TGI (CAKI-1 renal): > 100 µM | TGI (MCF7 breast): > 100 µM | TGI (U251 CNS): 93 µM | TGI (HL-60(TB) leukemia): 82.5 µM | TGI (ACHN renal): > 100 µM | TGI (HS 578T breast): 92 µM | TGI (DU-145 prostate): > 100 µM | TGI (SW-620 colon): 90.3 µM | TGI (SF-539 CNS): > 100 µM | TGI (MDA-N): > 100 µM | TGI (MOLT-4 leukemia): 71.6 µM | TGI (UACC-62 melanoma): 54.3 µM | TGI (HT29 colon): 88.9 µM | TGI (PC-3 prostate): > 100 µM | TGI (SN12C renal): > 100 µM | TGI (NCI/ADR-RES ovarian): > 100 µM | TGI (HCT-116 colon): 94.6 µM | TGI (SK-MEL-2 melanoma): > 100 µM | TGI (MDA-MB-231 breast): > 100 µM | TGI (SK-MEL-5 melanoma): > 100 µM | TGI (MDA-MB-435): 64.2 µM
